The target of one experiment is T1, rat α2B (Rattus norvegicus, UniProt P19328).
T1 construct: expressed in transfected cells; host or cells: CHO cells (CHO-RNG)
T1 sequence (P19328 1-453): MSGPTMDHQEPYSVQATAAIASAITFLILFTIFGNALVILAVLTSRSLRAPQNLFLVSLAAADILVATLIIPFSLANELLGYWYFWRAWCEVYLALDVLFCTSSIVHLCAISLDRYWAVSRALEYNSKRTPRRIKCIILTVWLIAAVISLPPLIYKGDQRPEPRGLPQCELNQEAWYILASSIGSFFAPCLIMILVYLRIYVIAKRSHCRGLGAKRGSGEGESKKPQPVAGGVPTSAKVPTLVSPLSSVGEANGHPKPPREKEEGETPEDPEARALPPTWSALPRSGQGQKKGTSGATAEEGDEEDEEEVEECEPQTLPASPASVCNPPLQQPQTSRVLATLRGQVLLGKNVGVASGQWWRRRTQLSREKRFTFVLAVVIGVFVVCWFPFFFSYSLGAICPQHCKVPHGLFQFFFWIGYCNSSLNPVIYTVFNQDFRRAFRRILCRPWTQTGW
The experiment in a line: Receptor binding, [3H]rauwolscine, CHO-RNG cells expressing rat α2B. Here is the method:
(§1) Cell preparation: Chinese hamster ovary (CHO) cells expressing the human α2A and human α2C (CHO-C10 and CHO-C4 respectively) receptors and CHO cells (CHO-RNG) expressing the rat α2B, adrenoceptor were grown to near confluence in Dulbecco's modified Eagle's medium supplemented with 10% fetal bovine serum using standard cell culture methods. Cells were harvested by scraping and placed into cold buffer of the following composition: 50 mM Tris-HCl, 5 mM EDTA, pH 7.4). […] The pellet fraction was washed (resuspended in Tris-HCl, pH 8 buffer and centrifuged for 15-20 minutes at 49,000× g) 2 times and stored at -100° until binding assay.
(§2) Binding Studies: The radioligands [^3 H]rauwolscine (specific activity 80 Ci/mmol) and [^3 H]prazosin (specific activity 76 Ci/mmol) were obtained from New England Nuclear, Boston, Mass. Frozen membrane pellet was resuspended in 25 mM glycine/glycine, pH 7.5 and incubated with radioligand under the following conditions: CHO-C10, CHO-RNG, CHO-C4-[^3 H]rauwolscine, 22° C., 30 minutes; RKC-[^3 H]rauwolscine, 0° C., 120 minutes; and, HCC-[^3 H]prazosin, 22° C., 30 minutes in a final volume of 500 ul. At the end of the incubation period, the samples were filtered through glass filters (Whatman GF/B) in a 96 well cell harvester and rapidly washed four times with 4 mL of iced-cold 50 mM Tris-HCl buffer. The filters were then oven dried and transferred to scintillation vials containing 10 mL of Beckman's Ready Protein® scintillation cocktail for counting. […] Protein concentrations were determined with a protein assay kit from Bio Rad. Binding isotherms, equilibrium dissociation and affinity constants were analyzed and determined by the non-linear least squares curve fitting programs EBDA (BioSoft) or AccuFit Competition/Saturation by Beckman.
Cell Preparation: Chinese hamster ovary (CHO) cells expressing the human α2A (CHO-C10) and the rate α2B (CHO-RNG) […] were grown to near confluence in Dulbecco's modified Eagle's medium supplemented with 10% fetal bovine serum using standard cell culture methods. Cells were harvested by scraping and placed into cold buffer of the following composition: 50 mM Tris-HCl, 5 mM EDTA, pH 7.4). […] The pellet fraction was washed (resuspended in Tris-HCl, pH 8 buffer and centrifuged for 15-20 minutes at 49,000× g) 2 times and stored at […] until binding assay.
(§3) The radioligands [^3 H] rauwolscine (specific activity 80 Ci/mmol) and [^3 H] prazosin (specific activity 76 Ci/mmol) were obtained from New England Nuclear, Boston, Mass. Frozen membrane pellet was resuspended in 25 mM glycine/glycine, pH 7.4 and incubated with radioligand under the following conditions: CHO-C10, CHO-RNG, CHO-C4-[^3 H]rauwolscine, 22° C., 30 min.; and, HCC-[^3 H]prazowsin, 22° C., 30 minutes in a final volume of 500 ul. At the end of the incubation period, the samples were filtered through glass fiber filters (Whatman GF/B) in a 96 well cell harvester and rapidly washed four times which 4 mL of iced-cold 50 mM Tris-CHI buffer. The filters were then oven dried and transferred to scintillation vials containing 5 mL of Beckman's Ready Protein® scintillation cocktail for counting. […] Protein concentrations were determined with a protein assay kit from Bio lad. Binding isotherms, equilibrium dissociation and affinity constants were analyzed and determined by the non-linear least squares curve fitting programs AccuFit Competition/Saturation by Beckman.
(§4) Representative compounds of the present invention were tested according to the procedures given above. […] The receptor binding studies and K1 are measures of the affinity of a compound for a particular receptor.

For another experiment, the target named is T2, human α2C (Homo sapiens, UniProt P18825).
T2 construct: expressed in transfected cells; host or cells: CHO cells (CHO-C4)
T2 sequence (P18825 1-462): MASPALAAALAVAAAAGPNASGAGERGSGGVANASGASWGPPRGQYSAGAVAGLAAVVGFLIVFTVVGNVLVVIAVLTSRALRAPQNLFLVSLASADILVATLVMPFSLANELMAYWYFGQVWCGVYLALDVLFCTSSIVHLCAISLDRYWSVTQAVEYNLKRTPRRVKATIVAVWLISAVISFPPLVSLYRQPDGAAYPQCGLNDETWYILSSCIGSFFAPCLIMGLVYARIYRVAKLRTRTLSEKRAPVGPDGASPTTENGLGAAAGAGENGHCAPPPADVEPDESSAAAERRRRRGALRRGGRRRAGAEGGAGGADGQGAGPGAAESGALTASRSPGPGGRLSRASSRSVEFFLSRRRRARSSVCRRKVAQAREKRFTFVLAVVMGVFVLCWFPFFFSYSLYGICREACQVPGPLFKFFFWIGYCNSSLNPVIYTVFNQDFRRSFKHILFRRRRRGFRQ
The experiment in a line: Receptor binding, [3H]rauwolscine, CHO-C4 cells expressing human α2C. Particulars: CHO-C4, 22° C., 30 min. The protocol:
as §1, §2, §3, §4

The target in another experiment is I2A. Nature of the experiment: Receptor binding, I2A.
The target of the next experiment is α1. The experiment in a line: Receptor binding, [3H]prazosin, human cerebral cortex membranes (HCC). The following applies: 22° C., 30 min. The protocol: Tissue preparation: Membrane suspensions were prepared from human cerebral cortex ([…], for α1 receptors) obtained from the UCI Organ and Tissue Bank. Briefly, tissues (1 g) were homogenized in 25 mL of ice-cold 5 mM Tris, pH 7.4 with a Polytron homogenizer for 30 sec at setting #7, and centrifuged for
10-12 minutes at 300× g at 4° C. The supernatant was filtered through 2 layers of gauze and diluted 1:2 with 50 mM Tris-HCl buffer, pH 7.4, then centrifuged at 49,000× g for 20 minutes. The pellet fraction was washed 3 times (resuspended in Tris-HCl buffer and centrifuged for 20 minutes; at 49,000× g). The pellet was then stored at -80° C. until the binding assay.
as §2, §3, §4

Another experiment deals with I2B. Nature of the experiment: Receptor binding, I2B.
[1] abbreviates: [3H]rauwolscine, CHO-RNG, 22° C., 30 min, read-out: Ki α2B.

Each structure is given as a SMILES string. Like-named read-outs stand apart in the source and are kept apart here.

As to `Cc1ccccc1NC1=NCCN1` [Example 1], the Ki (as a rule, the equilibrium dissociation constant of an inhibitor or competing ligand from its target) at rat α2B was determined as 49 nM; at human α2C it was 70 nM; at I2A it was 1200 nM; on α1, 5030 nM.

In the case of `Nc1cc(Cl)c(NC2=NCCN2)c(Cl)c1` [Example 3], the Ki at rat α2B (setting [1]) is 4.8 nM; on human α2C it was 21 nM; on I2A, 64800 nM; at α1, 181 nM; at I2B it was 38600 nM.

Take `c1cc2c(cc1NC1=NCCN1)NCCN2` [Example 7]: the inhibition constant (Ki) worked out at 262 nM on rat α2B (setting [1]); 463 nM on human α2C; 100000 nM on I2A; 5100 nM at α1; 10000 nM on I2B.

In the case of `Cc1c(NC2=NCCN2)ccc2c1NCCN2` [Example 8], the Ki on rat α2B (setting [1]) was determined as 139 nM; on human α2C, 124 nM; on I2A, 100000 nM; on α1 it was 8720 nM; on I2B it was 10000 nM.

Take `Brc1c(NC2=NCCN2)ccc2c1NCCN2` [Example 9]: the inhibitory constant (Ki) is 47 nM at rat α2B (setting [1]); 120 nM at human α2C; 7560 nM at I2A; 1120 nM on α1; 4590 nM on I2B.

With `CC1CNc2c(ccc(NC3=NCCN3)c2Br)N1` (centres unmarked) [Example 10], the inhibitory constant (Ki) on rat α2B (setting [1]) turned out to be 194 nM; on human α2C, 293 nM; on I2A, 24800 nM; at α1, 6610 nM; at I2B it was 3260 nM.

Turning to `c1cc2c(cc1NC1=NCCN1)OCCO2` [Example 11], the inhibition constant (Ki) on rat α2B worked out at 28 nM; on I2A, 1080 nM; on α1, 2400 nM; at I2B, 2030 nM.

As to `COc1ccc(NC2=NCCN2)c(C)c1OC` [Example 12], the Ki came to 196 nM on rat α2B (setting [1]); 93 nM at human α2C; 100000 nM at I2A; 1450 nM on α1; 507 nM on I2B.

As to `Cc1c(NC2=NCCN2)ccc2c1OCCO2` [Example 13], the Ki amounted to 4 nM on rat α2B; 3.5 nM on human α2C; 100000 nM on I2A; 129 nM on α1; 1220 nM at I2B.

For the compound `O=C1COc2ccc(NC3=NCCN3)cc2N1` [Example 14], the Ki on rat α2B (setting [1]) came to 842 nM; on I2A, 4500 nM; on α1, 8990 nM; at I2B it was 6520 nM.

Regarding `Cc1c(NC2=NCCN2)ccc2c1NC(=O)CO2` [Example 15], the inhibition constant Ki on rat α2B (setting [1]) was found to be 241 nM; on human α2C, 134 nM; on α1, 2260 nM.

On to `Cc1c(NC2=NCCN2)ccc2c1NCCO2` [Example 16], for which the Ki was found to be 30 nM on rat α2B (setting [1]); 8.9 nM on human α2C; 100000 nM at I2A; 473 nM on α1; 12100 nM at I2B.

As for `Cc1cccc(Nc2ncc[nH]2)c1C` [Example 18], the inhibition constant (Ki) on rat α2B (setting [1]) stood at 295 nM; at human α2C it was 180 nM; at I2A, 141 nM; on α1, 5210 nM; on I2B, 13 nM.

As for `Cc1c(O)cccc1Nc1ncc[nH]1` [Example 20], the inhibitory constant (Ki) on rat α2B (setting [1]) amounted to 895 nM; on human α2C, 457 nM; at α1 it was 11300 nM.

In the case of `COc1c(C(C)(C)C)cc(C)c(Nc2ncc[nH]2)c1C` [Example 22], the Ki came out at 221 nM on rat α2B (setting [1]); 88 nM on human α2C; 100000 nM at I2A; 4180 nM at α1; 870 nM at I2B.

These data come from patent US6087361A, “Aryl-imidazolines and aryl-imidazoles useful as α-2 adrenergic agonists without cardiovascular side effects” (Allergan Sales, Inc., priority 1997, dated 2000).
